Data on five compounds can be found in patent US20030044413A1, “Methods of limiting apoptosis of cells” (Regents of the University of Minnesota, priority 1998, published 2003).

The subject of experiment [1] is isolated rat liver mitochondria. As to the kind of experiment: MPT spectrophotometric assay (mitochondrial swelling). The settings on record: for effect on DCA-induced MPT / mitochondrial swelling: preincubation (500 μM bile acid or cyclosporine A) before DCA; for mitochondrial swelling with the substance alone: substance alone added to isolated mitochondria. The protocol:
Isolation of mitochondria and MPT assays. Low calcium liver mitochondria were isolated from male 200-250 g Sprague-Dawley rats by density gradient centrifugation as previously published (Botla et al., J. Pharmacol. Exp. Ther., 272, 930-938 (1995); Walajtys-Rhode et al., J. Biol. Chem., 267, 370-379 (1992); and Sokol et al., Gastroenterology, 99, 1061-1071 (1990)). The mitochondrial fraction was resuspended in 30 ml of wash buffer containing 0.1 M KCl, 5 mM 3-(N-morpholino)-propane sulfonic acid (MOPS), and 1 mM EGTA, at pH 7.4 and centrifuged at 7,000×g for 10 min at 4° C. A final wash was carried out in chelex-100-treated buffer (Bio-Rad Laboratories, Hercules, Calif.) containing no EGTA. The resulting pellet was suspended in 4 ml of chelex--100-treated buffer containing 125 mM sucrose, 5 mM HEPES, 50 mM KCl and 2 mM KH2PO4. The usual yield of mitochondria was approximately 25 mg of protein per gram of liver tissue. Mitochondrial purity was established as previously described (Botla et al., J. Pharmacol. Exp. Ther., 272, 930-938 (1995)). Protein concentrations were determined using the Bio-Rad protein assay kit as specified by the manufacturer.
MPT was measured spectrophotometrically as described previously (Botla et al., J. Pharmacol. Exp. Ther., 272, 930-938 (1995); Pastorino et al., J. Biol. Chem., 268, 13791-13798 (1993)), during 10 min incubations at 25° C. using mitochondria (1 mg of protein/ml) suspended in 3 ml of a chelex-100-treated buffer containing 0.1 M NaCl, 10 mM MOPS, pH 7.4. Swelling was monitored at 540 nm in a Beckman DU 64 spectrophotometer. Basal values of mitochondria absorbance were measured for 5 min, and the optical density was monitored another 5 min after addition of 200 μM DCA or 80 μM phenylarsine oxide (PhAsO; Sigma Chemical Co.). For coincubation studies, mitochondria were preincubated with 500 μM UDCA or hyodeoxycholic acid for 5 min at 25° C. prior to the assay.
Spectrophotometric and Fluorimetric Assays of MPT. The MPT was assessed using a spectrophotometric assay measuring high amplitude rapid changes in mitochondrial volume, and a fluorimetric assay quantitating the release of calcein from calcein-loaded mitochondria. The MPT was measured spectrophotometrically as previously described (Pastorino, J. Biol. Chem., 268, 13791-13798 (1993); Botla et al., J. Pharmacol. Exp. Ther., 272, 930-938 (1995)). Briefly, mitochondria (3 mg protein) were incubated in 3 ml of chelex-100-treated respiration buffer (0.1 M NaCl, 10 mM MOPS, pH 7.4) for 10 min at 25° C. and monitored at 540 nm in a Beckman DU 64 spectrophotometer. Basal values of mitochondrial absorbance were measured for 5 min, and the optical density was monitored for an additional 5 min after addition of increasing concentrations of DCA (50-200 μM) or 80 μM phenylarsine oxide (PhAsO; Sigma Chemical Co., St. Louis, Mo.). For the coincubation studies, mitochondria were preincubated with UDCA (100-500 μM), or 500 μM hyodeoxycholic acid (HDCA; Sigma Chemical Co.) for 5 min at 25° C. prior to initiation of the assay.
Measurement of MPT and determination of cytochrome c content in supernatants and mitochondrial pellets after MPT. The MPT was assessed using a spectrophotometric assay measuring high amplitude rapid changes in mitochondria volume. Mitochondria (1 mg protein) were incubated in 1 ml of chelex-100-treated respiration buffer (0.1 M NaCl, 10 mM MOPS, pH 7.4) for 10 min at 25° C. and swelling was monitored at 540 nm in a Beckman DU 64 spectrophotometer. Malate and glutamate (1 mM) were added to initiate respiration, and 3 min later rotenone (5 μM), an inhibitor of complex I of the respiratory chain, was also added to the supension. Basal values of mitochondria absorbance were measured for 5 min, and the optical density was monitored for an additional 5 min after addition 200 μM DCA or 80 μM phenylarsine oxide (PhAsO; Sigma Chemical Co.). […]

Experiment [2] has as its system calcein-loaded isolated rat liver mitochondria. As to the kind of experiment: MPT fluorimetric assay (calcein release). Here is the method:
The fluorimetric assay was performed after loading the mitochondria with 10 μM calcein-acetoxymethyl ester (AM) (Molecular Probes Inc., Eugene, Oreg.) for 30 min at 37° C. in chelex-100 treated resuspension buffer before purification by sucrose-percoll gradient centrifugation (Botla et al., J. Pharmacol. Exp. Ther., 272, 930-938 (1995)). The assays were performed using calcein-loaded isolated mitochondria (1 mg protein/ml) in chelex-100-treated respiration buffer at 37° C. For the coincubation assays, the samples were preincubated for 10 min with 500 μM UDCA prior to addition of 200 μM DCA. The fluorescence of calcein was monitored by excitation and emission wavelengths of 490 nm and 515 nm, respectively, using a Perkin-Elmer luminescence spectrometer model LS-5B (Perkin-Elmer Ltd., Buckinghamshire, England).

Values joined by “and” are separate entries in the source; they are usually repeats but may differ in a detail not shown here. Equal entries are not always repeated.

With `C[C@H](CCC(=O)O)[C@H]1CC[C@H]2[C@@H]3CC[C@@H]4C[C@H](O)CC[C@]4(C)[C@H]3C[C@H](O)[C@]12C` [DCA, deoxycholic acid], the “concentration at which high amplitude mitochondrial swelling was detected (as low as)” value in experiment [1] stood at 50 µM. For the same compound, the “MPT, increase over control” value in experiment [1] (50 μM DCA) amounted to 4 fold.
A word on the inhibition: it is the percentage by which the read-out fell short of the control. As to `C[C@H](CCC(=O)O)[C@H]1CC[C@H]2[C@@H]3[C@@H](O)C[C@@H]4C[C@H](O)CC[C@]4(C)[C@H]3CC[C@]12C` [UDCA, ursodeoxycholic acid], the inhibition at 500 µM in experiment [2] (Rattus norvegicus, 200 μM DCA, 500 μM UDCA pretreatment 10 min, read-out: inhibition of DCA-induced calcein release) was approximately 50%. The values for the swelling in experiment [1] (100 μM UDCA 5 min before 200 μM DCA) and in experiment [1] (500 μM UDCA 5 min before 200 μM DCA) were 26.8±6.3% and 16.9±2.3%, respectively. Moreover, the “inhibition of DCA-induced MPT (mitochondrial swelling)” value in experiment [1] (200 μM DCA, pretreatment 500 μM UDCA or 5 μM cyclosporine A) was > 40% and 43.1±1.6%.
For `C[C@H](CCC(=O)O)[C@H]1CC[C@H]2[C@@H]3C[C@H](O)[C@@H]4C[C@H](O)CC[C@]4(C)[C@H]3CC[C@]12C` [hyodeoxycholic acid], the “effect on DCA-induced calcein release” value in experiment [2] (500 μM HDCA pretreatment) is “did not decrease DCA-induced mitochondrial swelling (FIG. 8B) or prevent calcein release”. The “effect on DCA-induced MPT / mitochondrial swelling” value in experiment [1] is given as “nor did it have a protective effect”; in experiment [1] (listed as HDCA), “did not decrease DCA-induced mitochondrial swelling”. Moreover, the “mitochondrial swelling with the substance alone” value in experiment [1] is “No significant mitochondrial swelling”.
With `C=C1[C@@H](O)[C@@H]2O[C@]3(CC[C@H](/C=C/[C@@H](C)[C@@H]4CC(C)=C[C@@]5(O[C@H](C[C@@](C)(O)C(=O)O)CC[C@H]5O)O4)O3)CC[C@H]2O[C@@H]1[C@@H](O)C[C@H](C)[C@H]1O[C@@]2(CCCCO2)CC[C@H]1C` [okadaic acid], the “mitochondrial swelling with the substance alone” value in experiment [1] was “did not induce mitochondria swelling”.
As for “TGF-β1: transforming growth factor β1, nonmembrane damaging inducer of apoptosis”, the “mitochondrial swelling with the substance alone” value in experiment [1] is “did not induce mitochondria swelling”.
